Data taken from patent publication US12655405B2, “Sequence specific degradation of single-stranded polynucleotides with CARD1 nuclease” (The Rockefeller University, priority 2020, dated 2026).

System: Tresu_2185 (CARD1)
Assay type: biochemical, Treponema succinifaciens
Experimental: The reactions were done in a reaction buffer (20 mM Tris-HCl, pH 7.5, 150 mM NaCl, 1 mM DTT, and 5 mM MnCl2, unless otherwise stated, with 250 nM CARD1 and 2.5 uM of cA4, with 2 μg M13 ssDNA (NEB) (FIG. 1b), 500 ng of non-linearized and linearized ΦX174 dsDNA (NEB) (FIGS. 1d, e, respectively) and 2 μg ΦX174 ssDNA (NEB) (FIG. 1a). cA4 and cA6 was obtained from Biolog Life Science Institute GmbH & Co. KG (Bremen, Germany). The reaction products were visualized by agarose gel electrophoresis. For the RNA oligo cleavage assay, 250 nM of a Cy3-labelled RNA oligo was added to the reaction. The reaction products were run on Mini-PROTEAN TBE-Urea precast gel (Bio-Rad), and visualized on a TYPHOON IMAGE SCANNER. For degradation of ssRNA or dsRNA ladders, 1 ug of either ssRNA ladder (NEB) or dsRNA ladder (NEB) was digested. The reaction products were visualized by agarose gel electrophoresis. At the indicated timepoints, all reaction were stopped by the addition of 25 mM of EDTA.

Tresu_2185 (CARD1), sequence (as listed by the source): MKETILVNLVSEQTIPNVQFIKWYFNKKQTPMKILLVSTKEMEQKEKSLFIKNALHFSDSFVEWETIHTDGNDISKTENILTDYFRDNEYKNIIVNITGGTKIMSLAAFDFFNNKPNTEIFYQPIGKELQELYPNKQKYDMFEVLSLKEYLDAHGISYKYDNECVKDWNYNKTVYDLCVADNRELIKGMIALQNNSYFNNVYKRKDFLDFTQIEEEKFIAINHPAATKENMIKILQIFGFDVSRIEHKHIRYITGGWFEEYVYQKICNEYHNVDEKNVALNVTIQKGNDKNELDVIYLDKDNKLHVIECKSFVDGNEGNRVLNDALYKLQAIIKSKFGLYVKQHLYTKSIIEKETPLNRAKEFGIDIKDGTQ

Cyclic Tetra-Adenylate [cA4]
degradation of RNA oligo by CARD1 in the presence of the cyclic oligoadenylate (60 nucleotide RNA oligo): degraded in the presence of cA4 | degradation of ssDNA by Tresu_2185 on addition of the cyclic oligoadenylate (circular ΦX174 and M13 ssDNA, 250 nM CARD1, 2.5 uM cA, 5 mM MnCl2, agarose gel): resulted in the degradation of circular ΦX174 and M13 ssDNA | cleavage of dsDNA by Tresu_2185 on addition of the cyclic oligoadenylate (supercoiled or linearized ΦX174 dsDNA): did not promote cleavage
